Experimental data from patent US20250263753A1, “BRIDGED CYCLE-BASED INHIBITORS OF DNA-DEPENDENT PROTEIN KINASE AND COMPOSITIONS AND APPLICATION IN GENE EDITING” (Juno Therapeutics, Inc., priority 2023, published 2025).
Like-named read-outs stand apart in the source and are kept apart here.

Experiments:
[1] = biological target: PI3Kδ (His-PIK3CD/PIK3R1, p110 delta/p85 alpha) (Homo sapiens (Human), UniProt O00329); test: PI3Kδ biochemical assay (HTRF/FRET probe); type: binding; conditions: class symbol
Description: Phosphoinositide 3-kinase (PI3K) Biochemical Assay: A solution was prepared containing 0.2 nM Anti-HIS-Terbium (Cisbio, 64CUSTAZU), 40 nM designed-probe and 1.0 nM His-PIK3CD/PIK3R1 (p110 delta/p85 alpha) in FRET Buffer (20 mM HEPES, 10 mM MgCl2, 0.015% Brij-35, 4 mM DTT, 0.05 mg/mL BSA).

[2] = biological target: PI3Kα (His-PIK3CA/PIK3R1, p110 alpha/p85 alpha) (Homo sapiens (Human), UniProt P42336); test: PI3Kα biochemical assay (HTRF/FRET probe); type: binding; conditions: class symbol
Chain of PI3Kα (His-PIK3CA/PIK3R1, p110 alpha/p85 alpha) (P42336 whole entry, species assumed): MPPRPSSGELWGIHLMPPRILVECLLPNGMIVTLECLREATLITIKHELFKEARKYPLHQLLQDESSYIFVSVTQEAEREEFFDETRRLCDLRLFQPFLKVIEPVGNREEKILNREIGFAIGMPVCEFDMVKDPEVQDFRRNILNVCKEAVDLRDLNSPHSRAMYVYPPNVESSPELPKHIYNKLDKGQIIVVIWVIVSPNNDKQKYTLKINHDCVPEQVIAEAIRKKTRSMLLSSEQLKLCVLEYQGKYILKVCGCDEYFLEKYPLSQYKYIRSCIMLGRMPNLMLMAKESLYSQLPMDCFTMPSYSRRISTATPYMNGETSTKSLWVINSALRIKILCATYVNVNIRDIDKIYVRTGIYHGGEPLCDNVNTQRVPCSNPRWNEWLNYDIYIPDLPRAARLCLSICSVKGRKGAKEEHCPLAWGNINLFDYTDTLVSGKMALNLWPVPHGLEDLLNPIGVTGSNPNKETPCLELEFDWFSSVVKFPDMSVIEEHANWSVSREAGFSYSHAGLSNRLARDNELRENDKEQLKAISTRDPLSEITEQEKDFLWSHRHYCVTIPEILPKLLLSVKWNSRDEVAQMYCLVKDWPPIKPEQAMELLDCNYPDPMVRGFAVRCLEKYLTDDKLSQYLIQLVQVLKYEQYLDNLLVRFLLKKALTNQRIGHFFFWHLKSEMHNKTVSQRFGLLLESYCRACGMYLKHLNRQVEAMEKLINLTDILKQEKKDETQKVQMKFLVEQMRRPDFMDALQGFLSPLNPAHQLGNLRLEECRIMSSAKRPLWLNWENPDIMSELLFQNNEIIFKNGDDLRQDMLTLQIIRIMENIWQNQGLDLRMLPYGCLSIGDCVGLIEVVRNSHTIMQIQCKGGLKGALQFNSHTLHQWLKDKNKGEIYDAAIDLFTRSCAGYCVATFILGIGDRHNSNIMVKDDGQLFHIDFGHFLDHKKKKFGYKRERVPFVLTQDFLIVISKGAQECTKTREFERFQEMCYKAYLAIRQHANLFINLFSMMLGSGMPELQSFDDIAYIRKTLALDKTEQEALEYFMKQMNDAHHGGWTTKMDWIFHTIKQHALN
Chain of PI3Kα (His-PIK3CA/PIK3R1, p110 alpha/p85 alpha) (P27986 whole entry partner, species assumed): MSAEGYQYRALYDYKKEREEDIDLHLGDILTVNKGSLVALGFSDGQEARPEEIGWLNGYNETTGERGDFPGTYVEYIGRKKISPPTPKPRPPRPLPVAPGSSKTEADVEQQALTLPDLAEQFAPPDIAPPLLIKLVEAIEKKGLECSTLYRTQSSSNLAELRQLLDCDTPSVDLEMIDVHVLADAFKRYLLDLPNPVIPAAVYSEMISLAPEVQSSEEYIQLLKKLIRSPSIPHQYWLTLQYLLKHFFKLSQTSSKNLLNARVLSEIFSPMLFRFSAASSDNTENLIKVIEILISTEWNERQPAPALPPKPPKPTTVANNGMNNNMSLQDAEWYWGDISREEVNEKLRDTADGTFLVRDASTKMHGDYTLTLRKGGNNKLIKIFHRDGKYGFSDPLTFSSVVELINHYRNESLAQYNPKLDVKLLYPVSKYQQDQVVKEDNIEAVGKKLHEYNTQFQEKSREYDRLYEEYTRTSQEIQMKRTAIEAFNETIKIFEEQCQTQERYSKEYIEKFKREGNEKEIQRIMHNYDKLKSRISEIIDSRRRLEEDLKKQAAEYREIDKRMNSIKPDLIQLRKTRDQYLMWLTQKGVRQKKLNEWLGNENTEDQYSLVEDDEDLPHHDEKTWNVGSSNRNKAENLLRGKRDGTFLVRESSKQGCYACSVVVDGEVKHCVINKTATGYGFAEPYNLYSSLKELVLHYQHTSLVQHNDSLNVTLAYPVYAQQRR
Description: Phosphoinositide 3-kinase α (PI3Kα) Biochemical Assay: A solution was prepared containing 0.2 nM Anti-HIS-Terbium (Cisbio, 64CUSTAZU), 3.7 nM designed-probe and 1.0 nM His-PIK3CA/PIK3R1 (p110 alpha/p85 alpha) in FRET Buffer (20 mM HEPES, 10 mM MgCl2, 0.015% Brij-35, 4 mM DTT, 0.05 mg/mL BSA).

[3] = biological target: DNA-PK (Homo sapiens (Human), UniProt P78527); test: DNA-PK biochemical assay (Reaction Biology HotSpot kinase assay, 10 μM ATP)
Method in brief: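 Radiometric 33P-ATP kinase reaction in 20 mM Hepes pH 7.5, 10 mM MgCl2, 1 mM EGTA, 2 mM DTT, 1% DMSO. Compound preincubated with kinase and substrate 20 min at room temperature, then reaction run 2 h at room temperature after ATP addition. Activity read by P81 filter binding.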

[4] = biological target: PI3Kβ (Homo sapiens (Human), UniProt P42338); test: PI3Kβ biochemical assay (Reaction Biology ADP-Glo); conditions: class symbol
Description: Phosphoinositide 3-kinase R (PI3KP) Biochemical Assay using Reaction Biology's ADP-Glo Assay Platform:
Step 1: Lipid kinases: Reaction Biology Corporation (RBC) currently offers lipid kinases in ADP-Glo format
Step 2: Assay Description Assay principle: The kinase reactions utilize ATP and produce ADP as a byproduct. The ADP production is quantified by ADP-Glo luminescence detection. This is a 3-step reaction: First, the kinase reaction with lipid substrate is carried out in the presence of ATP, and the reaction is quenched and depleted remaining ATP with ADP-Glo™ reagent, and then finally ADP is converted to ATP which is measured using a luciferase/luciferin reaction.
Step 3: Assay Procedure: 1. Prepare kinase in freshly prepared Reaction Buffer, kinase without substrate is delivered to background wells; 2. Deliver substrate into the kinase solution and gently mix, deliver to assay wells; 3. Deliver compounds in 100% DMSO into the kinase reaction mixture by Acoustic technology (Echo550; nanoliter range), incubate for 20 min at room temperature; 4. Deliver ATP into the reaction mixture to initiate the reaction; 5. Incubate for 60 min at 30° C.; 6. Quench the reaction with ADP-Glo reagent and incubate for 40 min; 7. Add Detection Mixture and incubate for 30 min; 8. Measure luminescence.
Step 4: Data Analysis: The luminescence is converted into M ADP production based on ADP standard curves. The nonlinear regression to obtain the standard curve and IC50 values are performed using Graphpad Prism software.

[5] = biological target: ATM (Homo sapiens (Human), UniProt Q13315); test: ATM biochemical assay (Reaction Biology HTRF kinase assay, 10 μM ATP)
Chain of ATM (Q13315 whole entry, the tested form may be a part): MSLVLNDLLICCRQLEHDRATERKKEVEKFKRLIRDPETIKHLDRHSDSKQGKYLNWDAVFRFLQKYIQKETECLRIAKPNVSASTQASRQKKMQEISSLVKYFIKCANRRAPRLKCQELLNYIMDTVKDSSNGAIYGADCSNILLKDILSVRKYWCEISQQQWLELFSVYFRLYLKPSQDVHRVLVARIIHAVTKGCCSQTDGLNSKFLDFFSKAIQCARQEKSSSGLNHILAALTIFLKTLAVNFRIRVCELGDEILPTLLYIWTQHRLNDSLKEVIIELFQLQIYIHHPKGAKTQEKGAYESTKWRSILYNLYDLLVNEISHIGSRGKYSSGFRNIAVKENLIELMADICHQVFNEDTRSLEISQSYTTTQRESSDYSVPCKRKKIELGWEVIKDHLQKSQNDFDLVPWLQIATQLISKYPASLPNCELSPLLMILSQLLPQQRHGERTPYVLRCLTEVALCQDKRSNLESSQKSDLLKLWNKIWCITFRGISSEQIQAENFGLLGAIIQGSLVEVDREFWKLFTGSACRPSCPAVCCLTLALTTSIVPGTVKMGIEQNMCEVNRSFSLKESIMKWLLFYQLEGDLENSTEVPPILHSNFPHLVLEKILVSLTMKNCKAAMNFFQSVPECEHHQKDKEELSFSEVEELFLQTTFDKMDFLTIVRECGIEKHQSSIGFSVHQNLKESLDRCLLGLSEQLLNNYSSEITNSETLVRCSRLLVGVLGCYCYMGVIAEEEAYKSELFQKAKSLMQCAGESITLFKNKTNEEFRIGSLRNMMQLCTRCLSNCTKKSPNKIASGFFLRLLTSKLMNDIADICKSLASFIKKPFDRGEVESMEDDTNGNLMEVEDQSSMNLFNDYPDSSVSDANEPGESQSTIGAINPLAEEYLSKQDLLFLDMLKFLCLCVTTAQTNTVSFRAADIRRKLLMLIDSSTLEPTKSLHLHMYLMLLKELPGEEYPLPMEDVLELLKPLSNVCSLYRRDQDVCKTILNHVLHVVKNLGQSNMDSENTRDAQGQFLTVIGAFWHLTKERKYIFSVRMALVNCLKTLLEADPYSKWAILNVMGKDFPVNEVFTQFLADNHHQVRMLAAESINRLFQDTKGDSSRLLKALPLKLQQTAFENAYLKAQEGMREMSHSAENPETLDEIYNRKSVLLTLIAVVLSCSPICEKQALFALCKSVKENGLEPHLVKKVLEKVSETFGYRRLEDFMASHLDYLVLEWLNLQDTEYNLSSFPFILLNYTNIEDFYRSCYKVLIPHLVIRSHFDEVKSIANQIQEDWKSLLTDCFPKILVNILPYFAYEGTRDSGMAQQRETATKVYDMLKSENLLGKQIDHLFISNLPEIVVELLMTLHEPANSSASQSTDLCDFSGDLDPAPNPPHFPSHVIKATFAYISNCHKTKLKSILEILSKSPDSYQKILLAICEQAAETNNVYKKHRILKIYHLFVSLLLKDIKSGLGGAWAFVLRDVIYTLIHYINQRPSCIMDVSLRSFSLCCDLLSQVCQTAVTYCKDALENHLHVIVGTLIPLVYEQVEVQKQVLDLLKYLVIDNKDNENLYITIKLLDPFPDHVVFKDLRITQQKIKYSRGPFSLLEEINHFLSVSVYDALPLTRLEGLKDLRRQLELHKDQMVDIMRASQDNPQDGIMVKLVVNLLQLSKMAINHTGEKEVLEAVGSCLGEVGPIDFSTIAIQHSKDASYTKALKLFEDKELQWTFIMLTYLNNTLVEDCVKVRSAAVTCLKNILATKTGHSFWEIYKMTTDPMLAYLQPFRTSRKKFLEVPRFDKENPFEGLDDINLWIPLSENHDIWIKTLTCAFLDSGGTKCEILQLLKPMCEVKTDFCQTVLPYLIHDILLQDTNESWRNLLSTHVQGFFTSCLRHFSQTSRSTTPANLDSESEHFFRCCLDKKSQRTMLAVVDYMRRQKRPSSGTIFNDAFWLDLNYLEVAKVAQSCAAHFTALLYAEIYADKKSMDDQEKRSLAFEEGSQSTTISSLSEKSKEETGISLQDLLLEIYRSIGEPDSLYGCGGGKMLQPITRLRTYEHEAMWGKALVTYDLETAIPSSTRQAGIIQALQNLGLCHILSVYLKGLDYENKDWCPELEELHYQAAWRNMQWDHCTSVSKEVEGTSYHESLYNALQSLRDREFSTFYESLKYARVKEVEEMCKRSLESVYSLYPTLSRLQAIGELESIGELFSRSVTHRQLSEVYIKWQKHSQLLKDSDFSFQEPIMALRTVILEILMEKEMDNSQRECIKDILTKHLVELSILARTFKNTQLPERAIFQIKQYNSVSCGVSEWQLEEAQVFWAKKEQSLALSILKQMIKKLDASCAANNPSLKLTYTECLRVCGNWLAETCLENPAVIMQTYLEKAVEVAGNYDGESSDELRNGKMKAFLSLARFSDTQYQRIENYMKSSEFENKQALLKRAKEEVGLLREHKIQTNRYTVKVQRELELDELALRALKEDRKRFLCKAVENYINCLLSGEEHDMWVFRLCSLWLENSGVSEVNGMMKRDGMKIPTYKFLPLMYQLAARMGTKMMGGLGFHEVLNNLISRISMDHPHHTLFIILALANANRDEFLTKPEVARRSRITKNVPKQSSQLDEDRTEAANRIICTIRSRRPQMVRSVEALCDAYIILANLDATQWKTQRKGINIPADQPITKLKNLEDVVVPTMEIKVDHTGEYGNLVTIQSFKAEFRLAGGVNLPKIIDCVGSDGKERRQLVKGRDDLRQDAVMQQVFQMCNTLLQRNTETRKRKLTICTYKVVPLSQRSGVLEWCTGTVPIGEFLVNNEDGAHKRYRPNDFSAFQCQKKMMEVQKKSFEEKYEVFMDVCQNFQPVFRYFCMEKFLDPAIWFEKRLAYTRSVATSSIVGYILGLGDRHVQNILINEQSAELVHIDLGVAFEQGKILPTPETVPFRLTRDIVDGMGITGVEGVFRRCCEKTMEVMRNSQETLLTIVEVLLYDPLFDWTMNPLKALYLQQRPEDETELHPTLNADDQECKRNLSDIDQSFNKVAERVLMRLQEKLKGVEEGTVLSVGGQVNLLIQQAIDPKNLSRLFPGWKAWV
Method in brief: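 HTRF kinase assay with N-terminal GST-tagged human p53 (aa2-393) substrate, 10 μM ATP, in 50 mM Hepes pH 7.5, 10 mM MnCl2, 1% DMSO. Enzyme preincubated with compound 30 min, reaction 2 h at room temperature. pS15 phosphorylation read by Eu-cryptate anti-p53-pS15/anti-GST-d2 HTRF (615/665 nm).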

[6] = read-out: DNA-PK HotSpot 10 μM ATP IC50, class symbol
[7] = read-out: ATM HTRF 10 μM ATP IC50, class symbol

## Cc1cc2c(cc1Nc1ncc3c(n1)n([C@H]1C[C@@H]4CC[C@H]1C4)c(=O)n3C)OCO2 [Compound 46, 9-((1S,2S,4R)-bicyclo[2.2.1]heptan-2-yl)-7-methyl-2-((6-methylbenzo[d][1,3]dioxol-5-yl)amino)-7,9-dihydro-8H-purin-8-one]
[1]
  IC50: ≥ 1000 nM
[2]
  IC50: ≥ 1000 nM
[3]; [6]
  IC50: < 1 nM
[4]
  IC50: ≥ 1000 nM
[5]; class symbol
  IC50: 100 to 1000 nM

## Cc1cc2c(cc1Nc1ncc3c(n1)n(C14CCC(O)(CC1)C4)c(=O)n3C)OCO2 [Compound 2, 9-(4-hydroxybicyclo[2.2.1]heptan-1-yl)-7-methyl-2-((6-methylbenzo[d][1,3]dioxol-5-yl)amino)-7,9-dihydro-8H-purin-8-one]
[1]
  IC50: ≥ 1000 nM
[2]
  IC50: ≥ 1000 nM
[3]; [6]
  IC50: < 1 nM
[4]
  IC50: ≥ 1000 nM
[5]; class symbol
  IC50: 100 to 1000 nM

## Cc1cc2ncccc2cc1Nc1ncc2c(n1)n(C13CC(F)(C1)C3)c(=O)n2C [Compound 11, 9-(3-fluorobicyclo[1.1.1]pentan-1-yl)-7-methyl-2-((7-methylquinolin-6-yl)amino)-7,9-dihydro-8H-purin-8-one]
[1]
  IC50: ≥ 1000 nM
[2]
  IC50: 100 to 1000 nM
[3]; [6]
  IC50: < 1 nM
[4]
  IC50: 100 to 1000 nM
[5]; class symbol
  IC50: 10 to 100 nM

## Cc1cc2c(cc1Nc1ncc3c(n1)n(C14CC(F)(C1)C4)c(=O)n3C)OCO2 [Compound 13, 9-(3-fluorobicyclo[1.1.1]pentan-1-yl)-7-methyl-2-((6-methylbenzo[d][1,3]dioxol-5-yl)amino)-7,9-dihydro-8H-purin-8-one]
[1]
  IC50: ≥ 1000 nM
[2]
  IC50: ≥ 1000 nM
[3]; class symbol
  IC50: 1 to 10 nM
[4]
  IC50: ≥ 1000 nM
[5]; [7]
  IC50: ≥ 1000 nM

## Cc1cc2ncnn2cc1Nc1ncc2c(n1)n(C13CC(F)(C1)C3)c(=O)n2C [Compound 12, 9-(3-fluorobicyclo[1.1.1]pentan-1-yl)-7-methyl-2-((7-methyl-[1,2,4]triazolo[1,5-a]pyridin-6-yl)amino)-7,9-dihydro-8H-purin-8-one]
[1]
  IC50: ≥ 1000 nM
[2]
  IC50: ≥ 1000 nM
[3]; [6]
  IC50: < 1 nM
[4]
  IC50: ≥ 1000 nM
[5]; class symbol
  IC50: 100 to 1000 nM

## COC12CCC(n3c(=O)n(C)c4cnc(Nc5cn6ncnc6cc5C)nc43)(CC1)C2 [Compound 6, 9-(4-methoxybicyclo[2.2.1]heptan-1-yl)-7-methyl-2-((7-methyl-[1,2,4]triazolo[1,5-a]pyridin-6-yl)amino)-7,9-dihydro-8H-purin-8-one]
[1]
  IC50: ≥ 1000 nM
[2]
  IC50: 100 to 1000 nM
[3]; [6]
  IC50: < 1 nM
[4]
  IC50: 100 to 1000 nM
[5]; class symbol
  IC50: 10 to 100 nM

## Cc1cc2c(cc1Nc1ncc3c(n1)n(C1CC4CCC1CC4)c(=O)n3C)OCO2 (centres unmarked) [Compound 43, 9-((1s,4s)-bicyclo[2.2.2]octan-2-yl)-7-methyl-2-((6-methylbenzo[d][1,3]dioxol-5-yl)amino)-7,9-dihydro-8H-purin-8-one]
[1]
  IC50: ≥ 1000 nM
[2]
  IC50: ≥ 1000 nM
[3]; [6]
  IC50: < 1 nM
[4]
  IC50: ≥ 1000 nM
[5]; class symbol
  IC50: 100 to 1000 nM

## Cc1cc2ncnn2cc1Nc1ncc2c(n1)n(C1CC3CCC1CC3)c(=O)n2C (centres unmarked) [Compound 42, 9-((1s,4s)-bicyclo[2.2.2]octan-2-yl)-7-methyl-2-((7-methyl-[1,2,4]triazolo[1,5-a]pyridin-6-yl)amino)-7,9-dihydro-8H-purin-8-one]
[1]
  IC50: ≥ 1000 nM
[2]
  IC50: 100 to 1000 nM
[3]; [6]
  IC50: < 1 nM
[4]
  IC50: 100 to 1000 nM
[5]; class symbol
  IC50: 10 to 100 nM

## COC12CCC(n3c(=O)n(C)c4cnc(Nc5cc6nsnc6cc5C)nc43)(CC1)C2 [Compound 8, 9-(4-methoxybicyclo[2.2.1]heptan-1-yl)-7-methyl-2-((6-methylbenzo[c][1,2,5]thiadiazol-5-yl)amino)-7,9-dihydro-8H-purin-8-one]
[1]
  IC50: 100 to 1000 nM
[2]
  IC50: 10 to 100 nM
[3]; [6]
  IC50: < 1 nM
[5]; class symbol
  IC50: 10 to 100 nM

## Cc1cc2nsnc2cc1Nc1ncc2c(n1)n(C13CCC(O)(CC1)C3)c(=O)n2C [Compound 3, 9-(4-hydroxybicyclo[2.2.1]heptan-1-yl)-7-methyl-2-((6-methylbenzo[c][1,2,5]thiadiazol-5-yl)amino)-7,9-dihydro-8H-purin-8-one]
[1]
  IC50: ≥ 1000 nM
[2]
  IC50: 10 to 100 nM
[3]; [6]
  IC50: < 1 nM
[5]; class symbol
  IC50: 1 to 10 nM

## Cc1cc2ncnn2cc1Nc1ncc2c(n1)n(C13CCC(O)(CC1)C3)c(=S)n2C [Compound 31, 9-(4-hydroxybicyclo[2.2.1]heptan-1-yl)-7-methyl-2-((7-methyl-[1,2,4]triazolo[1,5-a]pyridin-6-yl)amino)-7,9-dihydro-8H-purine-8-thione]
[1]
  IC50: 10 to 100 nM
[2]
  IC50: 100 to 1000 nM
[3]; class symbol
  IC50: 1 to 10 nM
[5]; class symbol
  IC50: 100 to 1000 nM

## Cc1cc2nonc2cc1Nc1ncc2c(n1)N(C13CCC(O)(CC1)C3)CC(=O)N2C [Compound 60, 8-(4-hydroxybicyclo[2.2.1]heptan-1-yl)-5-methyl-2-((6-methylbenzo[c][1,2,5]oxadiazol-5-yl)amino)-7,8-dihydropteridin-6(5H)-one]
[1]
  IC50: 100 to 1000 nM
[2]
  IC50: 100 to 1000 nM
[3]; [6]
  IC50: < 1 nM
[5]; class symbol
  IC50: 10 to 100 nM

## Cc1cc2nsnc2cc1Nc1ncc2c(n1)n(C13CC(F)(C1)C3)c(=O)n2C [Compound 14, 9-(3-fluorobicyclo[1.1.1]pentan-1-yl)-7-methyl-2-((6-methylbenzo[c][1,2,5]thiadiazol-5-yl)amino)-7,9-dihydro-8H-purin-8-one]
[1]
  IC50: ≥ 1000 nM
[2]
  IC50: 100 to 1000 nM
[3]; [6]
  IC50: < 1 nM
[5]; class symbol
  IC50: 100 to 1000 nM

## Cc1cc2ncnn2cc1Nc1ncc2c(n1)N(C13CCC(O)(CC1)C3)CC(=O)N2C [Compound 51, 8-{4-Hydroxybicyclo[2.2.1]heptan-1-yl}-5-methyl-2-({7-methyl-[1,2,4]triazolo[1,5-a]pyridin-6-yl}amino)-5,6,7,8-tetrahydropteridin-6-one]
[1]
  IC50: 100 to 1000 nM
[2]
  IC50: 100 to 1000 nM
[3]; class symbol
  IC50: 1 to 10 nM
[5]; class symbol
  IC50: 100 to 1000 nM

## Cc1cc2c(cc1Nc1ncc3c(n1)N(C14CC(F)(C1)C4)C(=O)C31CC1)OCO2 [Compound 76, 7′-(3-fluorobicyclo[1.1.1]pentan-1-yl)-2′-((6-methylbenzo[d][1,3]dioxol-5-yl)amino)spiro[cyclopropane-1,5′-pyrrolo[2,3-d]pyrimidin]-6′(7′H)-one]
[1]
  IC50: ≥ 1000 nM
[2]
  IC50: ≥ 1000 nM
[3]; class symbol
  IC50: 1 to 10 nM
[5]; [7]
  IC50: ≥ 1000 nM

## Cc1cc2ncccc2cc1Nc1ncc2c(n1)N(C13CC(F)(C1)C3)C(=O)C21CC1 [Compound 71, 7′-(3-fluorobicyclo[1.1.1]pentan-1-yl)-2′-((7-methylquinolin-6-yl)amino)spiro[cyclopropane-1,5′-pyrrolo[2,3-d]pyrimidin]-6′(7′H)-one]
[1]
  IC50: ≥ 1000 nM
[2]
  IC50: 100 to 1000 nM
[3]; [6]
  IC50: < 1 nM
[5]; class symbol
  IC50: 100 to 1000 nM

## Cc1cc2ncnn2cc1Nc1ncc2c(n1)N(C13CC(F)(C1)C3)CC(=O)N2C [Compound 54, 8-{3-Fluorobicyclo[1.1.1]pentan-1-yl}-5-methyl-2-({7-methyl-[1,2,4]triazolo[1,5-a]pyridin-6-yl}amino)-5,6,7,8-tetrahydropteridin-6-one]
[1]
  IC50: ≥ 1000 nM
[2]
  IC50: ≥ 1000 nM
[3]; class symbol
  IC50: 1 to 10 nM
[5]; [7]
  IC50: ≥ 1000 nM

## Cc1cc(-c2cnn(C)c2)c(F)cc1Nc1ncc2c(n1)n(C13CCC(O)(CC1)C3)c(=O)n2C [Compound 37, 2-((5-fluoro-2-methyl-4-(1-methyl-1H-pyrazol-4-yl)phenyl)amino)-9-(4-hydroxybicyclo[2.2.1]heptan-1-yl)-7-methyl-7,9-dihydro-8H-purin-8-one]
[1]
  IC50: ≥ 1000 nM
[2]
  IC50: 100 to 1000 nM
[3]; [6]
  IC50: < 1 nM
[5]; class symbol
  IC50: 1 to 10 nM
